Consider 30 compounds from patent US5234934A, “Aminopropanol derivatives, process for their preparation and pharmaceutical compositions comprising the same” (priority 1989, dated 1993).

The nature of data set [1]: acute toxicity test in mice (Litchfield and Wilcoxon). In kind it is in vivo, mouse. The conditions noted are these: mouse, in vivo, po., 14 days observation. How it is done: The test for acute toxicity was carried out by using 10 white mice (CFLP strain) (both male and female), weighing 18 to 22 g in each dose group. The compounds of the invention were administered orally in a dose of 20 ml/kg.
The animals were kept in a plastic box on wood chips in a room of room temperature. They could consume tap water and standard mouse feed ad libitum. The toxicity data were determined by the method of Litchfield and Wilcoxon (Litchfield, J. T., Wilcoxon, F. W.: J. Pharmacol. Exp. Ther. 96, 99/1949/).

The test system of data set [2] is aconitine-induced ECG alterations. In words: animal or person. The conditions noted are these: Rattus norvegicus; for change in vivo at 4 mg/kg / ED50: iv; for change in vivo at 4 mg/kg / change in vivo at 100 mg/kg: read-out: Effect % (antiarrhythmic); for ED50: read-out: ED50 iv. (antiarrhythmic); for change in vivo at 100 mg/kg: po. In kind it is in vivo, rat. Here is the method:
The test was carried out by using the modified method of Marmo et al. on rats weighing 160 to 200 g. The animals were narcotised by ethyl uretane (1.2 g/kg ip.). Aconitin was administered intravenously in a dose of 75 /ug/kg in the form of a bolus injection. The ECG alterations were monitored in standard II lead by 5 minutes after the administration of aconitine. The observed alterations were classified into classes 0 to 5. The compounds of the invention were administered 2 minutes or 60 minutes before the parenteral or oral administration of aconitine, respectively. […]
class 1: sometimes an extrasystole occurs class 2: each second one is an extrasystole class 3: extrasystoles in groups class 4: each one is an extrasystole class 5: fibrillation, death
(Marmo, E., DiGiacomo, S., Imperatore, A.: Arzeimittel-Forschung 20, 12/1970/)

Data set [3] relates to hexobarbital narcosis. In words: narcosis potentiating effect (hexobarbital sleeping time). Particulars: for ED50: Mus musculus, po, read-out: ED50 (narcosis potentiation); for TI (therapeutic index): narcosis potentiation, mice, po.
Protocol: The narcosis potentiating effect of the compounds of the invention were examined on white mice, with 6 animals in each group. The mice were administered orally with the compounds of the invention, then both the control and the test groups were intravenously added 40 mg/kg of hexobarbital in order to make the mice sleep (Kaergard et al.).

For orientation: LD50 means the dose expected to kill half of the subjects tested. Read a high LD50 as lower toxicity. `CC(C)(C)NCC(O)CO/N=C1\CCCC\C1=C/c1ccccc1` (racemic) [Example 2, R,S-2-(E)-Phenylmethylene-1-(E)-[3-(1,1-dimethylethyl-amino)-2-hydroxy-propoxyimino]-cyclohexane] yielded an LD50 at 336 h in data set [1] of 600 mg/kg. Further, the change in vivo at 4 mg/kg in data set [2] was -43%.
`CCCCCCNCC(O)CO/N=C1\CCCC\C1=C/c1ccccc1` (racemic) [Example 3, R,S-2-(E)-Phenylmethylene-1-(E)-(3-hexylamino-2-hydroxy-propoxyimino)-cyclohexane] displayed an LD50 at 336 h in data set [1] of over 1000 mg/kg.
What is called ED50 is the dose at which the effect has come halfway, by size or by number of responders. Take `COc1ccc(CCNCC(O)CO/N=C2\CCCC\C2=C/c2ccccc2)cc1OC` (racemic) [Example 7]: in data set [1], the LD50 at 336 h was over 1000 mg/kg. In data set [3], the ED50 turned out to be 70 mg/kg and the “TI (therapeutic index)” value came out at 14.
`OC(CO/N=C1\CCCC\C1=C/c1ccccc1)CN1CCCC1` (racemic) [Example 8, R,S-2-(E)-Phenylmethylene-1-(E)-(3-pyrrolidinyl-2-hydroxy-propoxyimino)-cyclohexane] returned an LD50 at 336 h in data set [1] of 800 mg/kg.
`OC(CO/N=C1\CCCC\C1=C/c1ccccc1)CN1CCCCC1` (racemic) [Example 9, R,S-2-(E)-Phenylmethylene-1-(E)-(3-piperidinyl-2-hydroxypropoxyimino)-cyclohexane] registered an LD50 at 336 h in data set [1] of 700 mg/kg. Besides, in data set [3], the ED50 amounted to 30 mg/kg and the “TI (therapeutic index)” value is 23.
On to `CC(C)N(CC(O)CO/N=C1\CCCCC\C1=C/c1ccccc1)C(C)C` (racemic) [Example 14, R,S-2-(E)-Phenylmethylene-1-(E)-{3-[bis-(1-methylethyl)-amino]-2-hydroxy-propoxyimino}-cycloheptane], for which the LD50 at 336 h in data set [1] amounted to 900 mg/kg. Further, in data set [2], the ED50 came to 1.64 mg/kg and the change in vivo at 4 mg/kg was -83%. For the same compound, in data set [3], the ED50 was 80 mg/kg and the “TI (therapeutic index)” value was found to be 11.
For the compound `C#CC(C)(C)NCC(O)CO/N=C1\CCCCC\C1=C/c1ccccc1` (racemic) [Example 16, R,S-2-(E)-Phenylmethylene-1-(E)-[3-(1,1-dimethylpropin-2-yl)amino-2-hydroxy-propoxyimino]-cycloheptane], the LD50 at 336 h in data set [1] was over 1000 mg/kg.
Compound `CN1CCN(CC(O)CO/N=C2\CCCCC\C2=C/c2ccccc2)CC1` (racemic) [Example 17, R,S-2-(E)-Phenylmethylene-1-(E)-[3-(4-methyl-1-piperazinyl)-2-hydroxy-propoxyimino]-cycloheptane] returned an LD50 at 336 h in data set [1] of over 1000 mg/kg.
Take `CC(C)N(CC(O)CO/N=C1\CCCCCC\C1=C/c1ccccc1)C(C)C` (racemic) [Example 19, R,S-2-(E)-Phenylmethylene-1-(E)-{3-[bis(1-methylethyl)-amino]-2-hydroxy-propoxyimino}-cyclooctane]: the LD50 at 336 h in data set [1] was 800 mg/kg. Also, in data set [2], the ED50 is 3.29 mg/kg and the change in vivo at 4 mg/kg is -76%. In addition, in data set [3], the median effective dose (ED50) turned out to be 26 mg/kg and the “TI (therapeutic index)” value was determined as 31.
Consider `CC(C)(C)NCC(O)CO/N=C1\CCC\C1=C/c1ccccc1` (racemic) [Example 22, R,S-2-(E)-Phenylmethylene-1-(E)-[3-(1,1-dimethylethylamino)-2-hydroxy-propoxyimino]-cyclopentane], for which the LD50 at 336 h in data set [1] came out at 900 mg/kg.
In data set [1], `CC(C)(C)NCC(O)CO/N=C1\CCCC\C1=C/c1ccccc1Cl` (racemic) [Example 23, R,S-(E)-(2-Chlorophenyl-methylene)-1-(E)-[3-(1,1-dimethylethylamino)-2-hydroxy-propoxyimino]-cyclohexane] came in with an LD50 at 336 h of 130 mg/kg. For the same compound, in data set [2], the ED50 was 0.36 mg/kg and the change in vivo at 4 mg/kg was -83%. Also, in data set [3], the ED50 turned out to be 16 mg/kg and the “TI (therapeutic index)” value amounted to 8.
With `OC(CNC1CC1)CO/N=C1\CCCC\C1=C/c1ccc(Cl)cc1` (racemic) [Example 27, R,S-2-(E)-(4-Chlorophenyl-methylene)-1-(E)-(3-cyclopropylamino-2-hydroxy-propoxyimino)-cyclohexane], the LD50 at 336 h in data set [1] is about 1000 mg/kg. In data set [3], the ED50 was found to be 35 mg/kg and the “TI (therapeutic index)” value was 29.
Taken in the same sequence, the figures for `CC(C)NCC(O)CO/N=C1\CCCC\C1=C/c1ccc(Cl)cc1` (racemic) [Example 28, R,S-2-(E)-(4-Chlorophenyl-methylene)-1-(E)-[3-(1-methylethylamino)-2-hydroxy-propoxyimino]-cyclohexane] were 1500 mg/kg, 75 mg/kg and 20.
`CC(C)(C)NCC(O)CO/N=C1\CCCC\C1=C/c1ccc(Cl)cc1` (racemic) [Example 31, R,S-2-(E)-(4-Chlorophenyl-methylene)-1-(E)-[3-(1,1-dimethylethylamino)-2'-hydroxy-propoxyimino]-cyclohexane] displayed an LD50 at 336 h in data set [1] of about 1000 mg/kg.
Turning to `CCCN(CCC)CC(O)CO/N=C1\CCCC\C1=C/c1ccc(Cl)c(Cl)c1` (racemic) [Example 34, R,S-2-(E)-(3,4-Dichlorophenyl-methylene)-1-(E)-(3-/bis-n-propyl/-amino-2-hydroxy-propoxyimino)-cyclohexane], in data set [1], the LD50 at 336 h was over 1000 mg/kg. In data set [3], the ED50 came to 145 mg/kg and the “TI (therapeutic index)” value is over 7.
Taken in the same sequence, the figures for `COc1ccccc1/C=C1\CCCC\C1=N/OCC(O)CN1CCOCC1` (racemic) [Example 37, R,S-2-(E)-(2-Methoxyphenyl-methylene)-1-(E)-(3-morpholinyl-2-hydroxy-propoxyimino)-cyclohexane] were over 1000 mg/kg, 50 mg/kg and over 20.
The compound `COc1cccc(/C=C2\CCCC\C2=N/OCC(O)CN2CCN(Cc3ccccc3)CC2)c1` (racemic) [Example 39, R,S-2-(E)-(3-Methoxyphenyl-methylene)-1-(E)-{3-[(4-phenylmethyl)-1-piperazinyl]-2-hydroxy-propoxyimino}-cyclohexane] had an LD50 at 336 h in data set [1] of over 1000 mg/kg.
`COc1ccc(/C=C2\CCCCC\C2=N/OCC(O)CNC2CC2)cc1` (racemic) [Example 42, R,S-2-(E)-(4-Methoxyphenyl-methylene)-1-(E)-(3-cyclopropylamino-2-hydroxy-propoxyimino)-cycloheptane]: in data set [1], the LD50 at 336 h was over 1000 mg/kg. Besides, in data set [3], the ED50 came to 14.5 mg/kg and the “TI (therapeutic index)” value is over 69.
On to `CCCCNCC(O)CO/N=C1\CCCCCC\C1=C/c1ccccc1` (racemic) [Example 49, R,S-2-(E)-Phenylmethylene-1-(E)-(3-butylamino-2-hydroxypropoxyimino)-cyclooctane], for which, in data set [1], the LD50 at 336 h is over 1000 mg/kg.
On the same count and under the same terms, the figure for `COc1ccc(/C=C2\CCCCC\C2=N/OCC(O)CNC(C)C)cc1` (racemic) [Example 50, R,S-2-(E)-(4-Methoxyphenyl-methylene)-1-(E)-/3-(1-methylethylamino)-2-hydroxy-propoxyimino/-cycloheptane] is 1000 mg/kg; for `OC(CO/N=C1\CCCC\C1=C/c1ccccc1)CN1CCN(c2cccc(Cl)c2)CC1` (racemic) [Example 52, R,S-2-(E)-Phenylmethylene-1-(E)-{3-[4-(3-chlorophenyl)-1-piperazinyl]-2-hydroxy-propoxyimino}-cyclohexane] it is over 1000 mg/kg.
For `OC(CO/N=C1\CCCC\C1=C/c1ccccc1)CN1CCN(c2cccc(C(F)(F)F)c2)CC1` (racemic) [Example 53, R,S-2-(E)-Phenylmethylene-1-(E)-3-[4-(3-trifluoromethyl)-phenyl-1-piperazinyl]-2-hydroxy-propoxyimino-cyclohexane], the median lethal dose (LD50) at 336 h in data set [1] is over 1000 mg/kg.
As for `OC(CO/N=C1\CCCC\C1=C/c1ccccc1)CN1CCC(Cc2ccccc2)CC1` (racemic) [Example 54], the LD50 at 336 h in data set [1] is 600 mg/kg. In addition, in data set [2], the ED50 was 3.47 mg/kg and the change in vivo at 4 mg/kg is -56%.
Compound `O=C(OC(CO/N=C1\CCCCCC\C1=C/c1ccccc1)CN1CCOCC1)c1ccccc1` (racemic) [Example 69, R,S-2-(E)-Phenylmethylene-1-(E)-[3'-(4-morpholinyl)-2'-benzoyloxy-propoxyimino]-cyclooctane] yielded an LD50 at 336 h in data set [1] of over 1000 mg/kg.
Consider `CNC1=Nc2ccc(Cl)cc2C(c2ccccc2)=[N+]([O-])C1` [Chlordiazepoxide, reference compound], for which, in data set [3], the ED50 was 10 mg/kg and the “TI (therapeutic index)” value is reported as 62.
Take `COc1ccc([C@@H]2Sc3ccccc3N(CCN(C)C)C(=O)[C@@H]2OC(C)=O)cc1` [Dilthiazem, reference compound]: the change in vivo at 4 mg/kg in data set [2] is -27%.
For `CCCC(C)(COC(N)=O)COC(N)=O` [Meprobamate, reference compound], in data set [3], the ED50 was 260 mg/kg and the “TI (therapeutic index)” value stood at 4.2.
For the compound `Cc1cccc(C)c1OCC(C)N` (stereo not drawn) [Mexiletine, reference compound], the change in vivo at 4 mg/kg in data set [2] was -21%.
Turning to `CC(C)NCC(O)COc1cccc2[nH]ccc12` (stereo not drawn) [Pindolol, reference compound], the change in vivo at 100 mg/kg in data set [2] is -52%.
On to `CC(C)NCC(O)COc1cccc2ccccc12` (stereo not drawn) [Propranolol, reference compound], for which, in data set [2], the ED50 was 5.81 mg/kg, the change in vivo at 4 mg/kg is -7% and the change in vivo at 100 mg/kg was -50%.
